One series is described as follows: in vivo. To be noted: po.
The nature of a further series: analgesic activity. It counts as in vivo. The conditions noted are these: for ED50: po; for ED50 (analgesic activity): p.o.
The conditions of series [1]: extensive investigations in recent years; cited from earlier work.
The nature of another series: gastrotoxicity. To be noted: in vivo.
Setting [2] is: LD50 (acute (short-time) toxicity).

Structures can show the parent of a compound that is named as a salt.

Regarding `CC(=O)Nc1ccc(O)cc1` [Paracetamol, 4-hydroxyacetanilide], the 50% lethal dose (LD50) (in general, the dose at which mortality reaches 50%) in the series “in vivo” (setting [2]) is 1090 mg/kg. In “analgesic activity”, it took a dose of 285 mg/kg to reach the 50% effect level (ED50).

`Cc1c(N(C)C)c(=O)n(-c2ccccc2)n1C` [Aminophenazone, 1-phenyl-2,3-dimethyl-4-dimethylamino-5-pyrazolone]: the cancerogenic properties entry in series [1] is “potentially cancerogenic properties”. Besides, in the series “in vivo”, the median lethal dose (LD50) stood at 800 mg/kg. Also, the ED50 – broadly, the dose that gives a 50% effect, or the effect in half of the subjects – in the series “analgesic activity” was 104 mg/kg.

In the case of `CC(C)Cc1ccc(C(C)C(=O)O)cc1` (centres unmarked) [Ibuprofen, 2-(4-isobutylphenyl)propionic acid], the 50% effective dose (ED50) in the series “analgesic activity” was 179 mg/kg.

With `O=c1c2ccccc2ncn1CCOc1ccc(-c2ccc(F)cc2F)cc1` [Preferred etheric derivative (hydrochloride salt)], the “ED50 (analgesic activity)” value in the series “analgesic activity” came to 26 mg/kg.

Take `O=c1c2ccccc2ncn1CCOc1ccc(-c2ccc(F)cc2F)cc1` [Preferred etheric derivative (base), 3-[2-(2',4'-difluoro-4-biphenylyloxy)ethyl]-4(3H)-quinazolinone]: the signs of gastrotoxicity result in “gastrotoxicity” is recorded as “free of any signs of gastrotoxicity”. For the same molecule, in the series “cancerogenity”, the signs of cancerogenity entry was “free of any signs of gastrotoxicity and cancerogenity”. The molecule also came in with an LD50 in the series “in vivo” (setting [2]) of 1000 mg/kg. The “ED50 (analgesic activity)” value in “analgesic activity” is recorded as 71 mg/kg.

For `O=c1c2ccccc2ncn1CCOc1ccc(-c2ccc(F)cc2F)cc1`, the LD50 in the series “in vivo” (setting [2]) was determined as 2000 mg/kg.

Regarding `CC(=O)Oc1ccccc1C(=O)O` [Acetylosalicylic acid], the median lethal dose (LD50) in the series “in vivo” turned out to be 1070 mg/kg. The 50% effect level in “analgesic activity” (ED50) was put at a dose of 190 mg/kg.
